Data from US20040147527A1, “Methods of use of gemifloxacin compounds against fluoroquinolone resistant Streptococcus pneumoniae bacteria” (priority 1999, published 2004).
≈ marks a conversion by molar mass, not a printed value.

Tests used:
[1] = system: S. pneumoniae with reduced susceptibility to CIP; experiment: MIC by NCCLS microbroth dilution, 80 clinical isolates with CIP MIC ≧2 μg/ml; assay type: cell-based; conditions: Streptococcus pneumoniae
Method: Topoisomerase IV (parC) and DNA gyrase (gyrA) mutations were confirmed by sequencing the QRDR region of each gene. Serotyping and PFGE were performed on all isolates. […] Breakpoints have not been established for all fluoroquinolones, thus percentage resistance was not calculated.

[2] = system: S. pneumoniae (CFX and TFX susceptible and resistant clinical isolates); experiment: Postantibiotic effect (PAE), viable colony counting technique; assay type: cell-based, Streptococcus pneumoniae
Method: This invention was based, in part, on analyses evaluating the comparative activity of gemifloxacin against various strains of S. pneumoniae. An objective of these analyses was to determine the postantibiotic effect (herein “PAE”) of GFX in CFX and TFX susceptible and resistant S. pneumoniae.
CFX resistant clinical isolates of S. pneumoniae were collected from across Canada. MICs were determined using a microbroth dilution technique described by the NCCLS. Topisomerase IV (parC) and DNA gyrase (gyrA) mutations were confirmed by sequencing the QRDR region of each gene. Two fluoroquinolone susceptible and 8 resistant isolates (3 CFX resistant. 5 CFX, TFX resistant) were selected for study. […] Antibiotics were removed using dilution into sterile media and the PAE assessed using a viable colony counting technique.

SMILES: N[C@@H]1[C@H]2CN(c3nc4c(cc3F)c(=O)c(C(=O)O)cn4-c3ccc(F)cc3F)C[C@@H]12 [TFX, trovafloxacin]
- MIC [1]: 0.06 to 8 µg/mL (≈ 0.144 to 19.2 µM)
- MIC50 [1]: 0.5 µg/mL (≈ 1.2 µM)
- MIC90 [1]: 4 µg/mL (≈ 9.61 µM)
- mean PAE ([2]; TFX susceptible isolates, 4× MIC for 2 hours): 2.1 h
- mean PAE ([2]; TFX susceptible isolates, 10× MIC for 2 hours): 3.2 h

SMILES: C[C@@H]1CN(c2c(F)c(N)c3c(=O)c(C(=O)O)cn(C4CC4)c3c2F)C[C@H](C)N1 [SPA, sparfloxacin]
- MIC [1]: 0.25 to 32 µg/mL (≈ 0.637 to 81.5 µM)
- MIC50 [1]: 0.5 µg/mL (≈ 1.27 µM)
- MIC90 [1]: 16 µg/mL (≈ 40.8 µM)

SMILES: COc1c(N2CCNC(C)C2)c(F)cc2c(=O)c(C(=O)O)cn(C3CC3)c12 (centres unmarked) [GAT, gatifloxacin]
- MIC [1]: 0.25 to 8 µg/mL (≈ 0.666 to 21.3 µM)
- MIC50 [1]: 0.5 µg/mL (≈ 1.33 µM)
- MIC90 [1]: 4 µg/mL (≈ 10.7 µM)

SMILES: C[C@H]1COc2c(N3CCN(C)CC3)c(F)cc3c(=O)c(C(=O)O)cn1c23 [LEV, levofloxacin]
- MIC [1]: 1 to 32 µg/mL (≈ 2.77 to 88.6 µM)
- MIC50 [1]: 2 µg/mL (≈ 5.53 µM)
- MIC90 [1]: 16 µg/mL (≈ 44.3 µM)

SMILES: CO/N=C1\CN(c2nc3c(cc2F)c(=O)c(C(=O)O)cn3C2CC2)CC1CN (racemic) [GFX, (R,S)-7-(3-aminomethyl-4-methoxyiminopyrrolidin-1-yl)-1-cyclopropyl-6-fluoro-4-oxo-1,4-dihydro-1,8-naphthyridine-3-carboxylic acid]
- MIC [1]: 0.03 to 5 µg/mL (≈ 0.077 to 12.8 µM)
- MIC50 [1]: 0.06 µg/mL (≈ 0.154 µM)
- MIC90 [1]: 0.25 µg/mL (≈ 0.642 µM)
- mean PAE ([2]; GFX, 4× MIC for 2 hours): 2.7 h
- mean PAE ([2]; GFX, 10× MIC for 2 hours): 3.8 h
- difference in duration of PAE between CFX or TFX susceptible and resistant strains ([2]; p<0.05): no significant difference

SMILES: COc1c(N2C[C@@H]3CCCN[C@@H]3C2)c(F)cc2c(=O)c(C(=O)O)cn(C3CC3)c12 [MOX, moxifloxacin]
- MIC [1]: 0.12 to 4 µg/mL (≈ 0.299 to 9.96 µM)
- MIC50 [1]: 0.25 µg/mL (≈ 0.623 µM)
- MIC90 [1]: 2 µg/mL (≈ 4.98 µM)

SMILES: Cc1c(F)c(N2CCNC(C)C2)cc2c1c(=O)c(C(=O)O)cn2C1CC1 (centres unmarked) [GRE, grepafloxacin]
- MIC [1]: 0.12 to 8 µg/mL (≈ 0.334 to 22.3 µM)
- MIC50 [1]: 0.5 µg/mL (≈ 1.39 µM)
- MIC90 [1]: 8 µg/mL (≈ 22.3 µM)
